Assay [1] concerns the target T1, ctPrp2-ctSpp2_211–254 complex (ctPrp2_270–921 with ctSpp2G-patch) (Thermochaetoides thermophila, UniProt G0SEG4).
T1 sequence (G0SEG4 270-921): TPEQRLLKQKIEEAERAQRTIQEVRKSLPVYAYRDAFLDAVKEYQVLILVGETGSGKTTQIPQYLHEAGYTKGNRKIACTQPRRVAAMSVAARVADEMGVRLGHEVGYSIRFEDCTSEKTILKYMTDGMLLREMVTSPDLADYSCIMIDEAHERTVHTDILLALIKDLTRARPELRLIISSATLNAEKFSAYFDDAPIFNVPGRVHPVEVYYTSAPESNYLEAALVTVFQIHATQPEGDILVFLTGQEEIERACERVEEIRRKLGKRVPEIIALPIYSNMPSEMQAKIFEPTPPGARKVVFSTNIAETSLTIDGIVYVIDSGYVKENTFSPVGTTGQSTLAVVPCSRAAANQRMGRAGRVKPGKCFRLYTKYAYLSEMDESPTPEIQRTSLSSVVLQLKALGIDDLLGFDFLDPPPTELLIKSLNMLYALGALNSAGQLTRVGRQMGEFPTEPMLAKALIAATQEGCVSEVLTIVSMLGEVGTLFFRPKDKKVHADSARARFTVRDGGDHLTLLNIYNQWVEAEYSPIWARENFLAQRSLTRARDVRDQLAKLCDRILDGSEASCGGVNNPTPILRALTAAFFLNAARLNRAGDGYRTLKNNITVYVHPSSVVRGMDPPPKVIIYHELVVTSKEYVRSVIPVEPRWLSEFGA
T1 sequence (G0SFN3 211-254 partner): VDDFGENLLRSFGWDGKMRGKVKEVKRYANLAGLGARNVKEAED
The assay is described as follows: ITC. The class given is binding.

Assay [2] has as its target ctPrp2 as used for ITC and for in-solution cross-linking (Chaetomium thermophilum). Nature of the assay: ITC. Background: In ITC the heat of successive injections is recorded.

As a reminder, the Kd is a measure of binding affinity in units of concentration. Lower therefore signals a tighter complex. Compound `Nc1ncnc2c1ncn2[C@@H]1O[C@H](COP(=O)(O)OP(=O)(O)O)[C@@H](O)[C@H]1O` [ADP] returned a Kd in assay [1] of about 172 nM.

As for “ctSpp2_(211–254), G-patch domain of Spp2 from Chaetomium thermophilum (domain or fragment)”, the Kd in assay [2] came out at 720 nM.

For the origin of these results see paper PMC7022188 (Proceedings of the National Academy of Sciences of the …, 2020).
